For one experiment, the system named is ZDF rats. The experiment in a line: RP-HPLC analysis of CML in kidney and heart of ZDF rats. In kind it is in vivo, rat. The following applies: for mean CML conc.: RP-HPLC, ZDF Placebo = 100. The method, then:
Kidney AGE values were determined by Dot blot analysis (Stracke et al., Exp. Clin. Endocrinol. Diabets 2002, 109, 330-336) and Reversed-phase high performance liquid chromatography or RP-HPLC (Drusch et al., Food Chem. 1999, 65, 547-553).
[…] Two animals of each group were analyzed. Grinding of the kidney and heart was performed in liquid nitrogen using a freezer mill (Freezer 6750, C3 Analysetechnik GmbH). Hydrolysis of the organ samples was performed with 6 M hydrochloric acid (HCl) at 110° C. for 12 hours. Sample treatment with o-phthaldialdehyde (OPA) and RP-HPLC was performed as described in Drusch et al., Food Chem. 1999, 65, 547-553.

In experiment [1] the test system is Zucker diabetic fatty rats. In words: Blood glucose analysis in ZDF rats. The conditions noted are these: for blood glucose, mean: ZDF rats. In kind it is in vivo, rat. How it is done:
Blood glucose and HbA1c was measured in 10- and 17-week-old male Zucker diabetic fatty rats (Genetic Model Inc.), control rats (Genetic Model Inc.) and male ZDF rats treated for seven weeks with 30 mg/kg/d of compound (II-B), 35 mg/kg/d of compound (III-B) and 1 mg/kg/d ramipril. Fifteen animals were analyzed in each group.
Blood samples for glucose determination were obtained from ZDF rats using standard sampling tubes. Within 30 minutes of collection, samples were separated from the cells by centrifugation. Quantitative determination of blood glucose in serum was performed with an enzymatic in vitro test from Roche Diagnostics GmbH (Gluco-quant, Roche Diagnostics GmbH) using the automated clinical chemistry analyzer Boehringer Mannheim/Hitachi 912.

For experiment [2], the system named is isolated aortic rings of rabbits. The experiment in a line: Relaxation of aortic rings by acetylcholine in rabbits fed an atherogenic diet. In kind it is in vivo, White New Zealand rabbits. The conditions noted are these: for Relaxation of aortic rings by acetylcholine: varied diet rabbits, mean ± SEM. From the text:
It was shown in the atherogenic rabbit model (White New Zealand rabbits were fed with 0.25% cholesterol plus 3% coconut oil) that even a short 6 week period of an atherogenic diet leads to sustained endothelial dysfunction, even though the animals received a normal diet for 3 months thereafter. […] The endothelium-dependent relaxation of isolated aortic rings of rabbits as well as the release of nitric oxide and superoxide from endothelial cells serve as measures of endothelial dysfunction. […] (II-B) [table]

In a further experiment the test system is endothelial cells. The experiment in a line: NO and superoxide release from endothelial cells in rabbits fed an atherogenic diet. In kind it is in vivo, White New Zealand rabbits. The conditions noted are these: varied diet rabbits; mean ± SEM. The text has this:
It was shown in the atherogenic rabbit model (White New Zealand rabbits were fed with 0.25% cholesterol plus 3% coconut oil) that even a short 6 week period of an atherogenic diet leads to sustained endothelial dysfunction, even though the animals received a normal diet for 3 months thereafter.
The endothelium-dependent relaxation of isolated aortic rings of rabbits as well as the release of nitric oxide and superoxide from endothelial cells serve as measures of endothelial dysfunction.
• Groups: • Standard: 18 weeks normal diet • Atherogenic: 18 weeks atherogenic diet (3% Coconut oil+0.25% Cholesterol) • Varied diet (Var.): 6 weeks atherogenic diet+12 weeks normal diet • Varied Diet+ramipril: 6 weeks atherogenic diet+12 weeks normal diet+ramipril • Varied diet+compound (II-B): 6 weeks atherogenic diet+12 weeks normal diet+cpd. (II-B)
NO and O2^− are markers for endothelial function: increased relaxation and increased NO levels are beneficial, while increased O2^− formation inhibits the beneficial effects of NO.

As for `CC(=O)S[C@H](C(=O)N[C@H]1Cc2ccccc2[C@H]2CCC[C@@H](C(=O)O)N2C1=O)C(C)C` [cpd. (II-B)], the “mean CML conc.” value was determined as 26% with ZDF rats (hearts of 17-week-old ZDF rats), 55% with ZDF rats (kidneys of 17-week-old ZDF rats) and 58% in the experiment on ZDF rats (kidneys of 37-week-old ZDF rats). Further, the “CML concentration in the heart of 17-week-old ZDF rats” value in the experiment on ZDF rats (in words) is “reduces”. Also, in the experiment on ZDF rats (in words), the “CML concentration in the kidneys of 17-week-old ZDF rats” value is on record as “reduces”. For the same compound, the “CML concentration in the kidneys of 37-week-old ZDF rats” value in the experiment on ZDF rats (in words) is “reduces”. In addition, the “Blood glucose concentration compared to the untreated ZDF rats” value in experiment [1] (17-week-old ZDF rats, in words) is given as “significantly lower”. Also, the “blood glucose, mean” value in experiment [1] (age 10 weeks (start of treatment)) was determined as 10.67 mM; in experiment [1] (age 17 weeks (treated for seven weeks)), 21.09 mM. The “Blood glucose value compared with the ACE inhibitor ramipril” value in experiment [1] (in words) is reported as “lower values”. Moreover, the “Relaxation of aortic rings by acetylcholine” value was 80.89 ± 6.82% in experiment [2] (ACh 10^−5 mol/L after phenylephrine 10^−7 mol/L), 76.4 ± 6.38% in experiment [2] (ACh 10^−6 mol/L after phenylephrine 10^−7 mol/L), 59.62 ± 6.43% in experiment [2] (ACh 10^−7 mol/L after phenylephrine 10^−7 mol/L) and 19.9 ± 3.48% in experiment [2] (ACh 10^−8 mol/L after phenylephrine 10^−7 mol/L). Also, the “Endothelial dysfunction and atherogenic changes in the blood vessels” value in experiment [2] (atherogenic rabbit model, in words) is “both prevented and reversed”. The compound also showed an NO in the experiment on endothelial cells of 329.19 ± 30.10 nM. For the same compound, the “O2^− (superoxide)” value with endothelial cells came out at 30.18 ± 6.00 nM.

Values taken from patent US6930103B2, “Use of vasopeptidase inhibitors in the treatment of metabolic diseases, nephropathy and advanced glycation end-product associated diseases” (Aventis Pharma Deutschland GmbH, priority 2002, dated 2005).
